Read-outs that look alike come from different tables or passages of the source.
How the values were obtained:
Mtb H37Rv [1] = conditions: previous results ref 8; cited from earlier work
[2] = tested on: THP-1-derived macrophages
Mtb H37Rv [3] = format: cell-based, Mycobacterium tuberculosis H37Rv
[4] = molecular target: PknG (kinase and rubredoxin domains) (Mycobacterium tuberculosis, UniProt P9WI73); assay: Intrinsic tryptophan fluorescence quenching; format: binding
Chain of PknG (kinase and rubredoxin domains) (P9WI73 74-405): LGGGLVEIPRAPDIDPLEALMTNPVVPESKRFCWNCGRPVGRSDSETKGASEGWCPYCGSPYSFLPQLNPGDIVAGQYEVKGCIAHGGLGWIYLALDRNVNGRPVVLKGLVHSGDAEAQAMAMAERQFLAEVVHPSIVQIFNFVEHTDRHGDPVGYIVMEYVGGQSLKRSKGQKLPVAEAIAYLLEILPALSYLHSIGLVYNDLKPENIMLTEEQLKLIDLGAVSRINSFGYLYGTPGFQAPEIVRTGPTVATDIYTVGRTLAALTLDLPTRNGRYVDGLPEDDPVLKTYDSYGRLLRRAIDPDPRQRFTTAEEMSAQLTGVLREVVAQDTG

NC(=O)c1c(NC(=O)C2CC2)sc2c1CCCC2 [AX20017]
inhibitory activity on intracellular survival of Mtb within macrophage cells (Mtb H37Rv [1]): very similar inhibitory activity

NC(=O)c1c(N)c(C(=O)c2ccc(F)cc2)n2ccccc12 [B1]
effect on cell viability [2]: none of the compounds showed adverse effects | Mtb H37Rv intracellular survival (Mtb H37Rv [3]): significant decrease

NC(=O)c1c(N)c(C(=O)c2cccs2)n2ccccc12 [B3]
Kd [4]: 3.6 µM

NC(=O)c1c(N)c(C(=O)c2ccc(Cl)c(Cl)c2)n2ccccc12 [B4]
Kd [4]: 13 µM

CC(C)c1ccc(C(=O)c2c(N)c(C(N)=O)c3ccccn23)cc1 [T1]
effect on cell viability ([2]; 10 μM, 3, 24 and 48 h): none of the compounds showed adverse effects | Mtb H37Rv intracellular survival (Mtb H37Rv [3]; 1 and 10 μM, 24 h and 48 h, […]): significant decrease
